Measured values taken from BindingDB's records for PubMed 7908055 (Case Western Reserve University, 1994).

Legend:
[1] = target: D(2) dopamine receptor (Rattus norvegicus, UniProt P61169)
[2] = target: 5-hydroxytryptamine receptor 2A (Rattus norvegicus, UniProt P14842)
[3] = target: T1, 5-hydroxytryptamine receptor 2C (Rattus norvegicus, UniProt P08909)
T1 sequence (P08909 whole entry): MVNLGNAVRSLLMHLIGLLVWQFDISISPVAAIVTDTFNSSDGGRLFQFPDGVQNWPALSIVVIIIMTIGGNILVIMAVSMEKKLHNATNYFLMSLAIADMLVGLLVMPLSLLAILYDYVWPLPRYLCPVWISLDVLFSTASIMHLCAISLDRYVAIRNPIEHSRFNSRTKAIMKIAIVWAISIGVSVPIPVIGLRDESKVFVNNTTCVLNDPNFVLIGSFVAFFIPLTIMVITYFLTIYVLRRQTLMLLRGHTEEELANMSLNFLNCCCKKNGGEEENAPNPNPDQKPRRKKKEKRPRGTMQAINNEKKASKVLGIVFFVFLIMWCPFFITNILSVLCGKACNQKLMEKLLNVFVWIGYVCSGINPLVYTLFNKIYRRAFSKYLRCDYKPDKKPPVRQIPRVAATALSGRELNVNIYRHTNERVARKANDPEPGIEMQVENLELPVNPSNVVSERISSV

D(2) dopamine receptor, sequence (P61169 whole entry): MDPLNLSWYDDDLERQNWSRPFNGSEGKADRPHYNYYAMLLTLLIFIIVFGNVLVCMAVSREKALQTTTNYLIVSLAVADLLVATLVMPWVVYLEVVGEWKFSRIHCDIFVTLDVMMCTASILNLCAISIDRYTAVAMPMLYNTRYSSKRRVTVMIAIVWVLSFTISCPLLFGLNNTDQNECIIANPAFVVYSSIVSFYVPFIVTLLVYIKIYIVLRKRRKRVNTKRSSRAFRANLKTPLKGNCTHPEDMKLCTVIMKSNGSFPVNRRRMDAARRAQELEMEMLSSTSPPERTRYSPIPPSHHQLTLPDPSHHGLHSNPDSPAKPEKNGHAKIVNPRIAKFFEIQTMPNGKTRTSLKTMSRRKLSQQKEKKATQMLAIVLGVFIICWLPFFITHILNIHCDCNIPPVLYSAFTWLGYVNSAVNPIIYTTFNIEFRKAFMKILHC
5-hydroxytryptamine receptor 2A, sequence (P14842 whole entry): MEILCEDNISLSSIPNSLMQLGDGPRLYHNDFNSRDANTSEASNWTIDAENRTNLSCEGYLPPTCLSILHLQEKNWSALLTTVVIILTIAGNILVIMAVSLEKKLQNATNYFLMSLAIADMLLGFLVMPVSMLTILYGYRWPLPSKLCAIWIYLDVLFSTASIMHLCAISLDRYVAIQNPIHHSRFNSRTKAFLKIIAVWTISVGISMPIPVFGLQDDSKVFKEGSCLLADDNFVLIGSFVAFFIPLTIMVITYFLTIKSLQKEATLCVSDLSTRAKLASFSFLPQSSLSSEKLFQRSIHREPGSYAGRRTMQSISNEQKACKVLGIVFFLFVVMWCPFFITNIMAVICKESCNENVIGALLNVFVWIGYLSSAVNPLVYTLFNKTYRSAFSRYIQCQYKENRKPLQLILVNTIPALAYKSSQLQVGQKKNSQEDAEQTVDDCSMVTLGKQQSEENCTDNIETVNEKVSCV

CCNC(=O)N1CCN(CCCC(c2ccc(F)cc2)c2ccc(F)cc2)CC1
Ki [1]: 501 nM | Ki [2]: 12.6 nM | Ki [3]: 1260 nM

CN1CCN(C2=Nc3ccccc3Sc3ccc(Cl)cc32)CC1 [2-chloro-11-(4-methylpiperazin-1-yl)dibenzo[b,f][1,4]thiazepine]
Ki [2]: 0.79 nM

CN1CCCCC1CCN1c2ccccc2Sc2ccc([S+](C)[O-])cc21 (stereo unspecified)
Ki [1]: 7.94 nM

CN1CCN(C2=Nc3ccccc3Cc3ccccc32)CC1
Ki [1]: 501 nM | Ki [2]: 12.6 nM

CN1CCN(C2=Nc3cc(F)ccc3Cc3ccccc32)CC1
Ki [1]: 316 nM | Ki [2]: 6.3 nM | Ki [3]: 19.9 nM

CN1CCN(C2=Nc3ccccc3Oc3ccc(Cl)cc32)CC1 [13-chloro-10-(4-methylpiperazin-1-yl)-2-oxa-9-azatricyclo[9.4.0.0^{3,8}]pentadeca-1(11),3,5,7,9,12,14-heptaene]
Ki [1]: 7.94 nM

OC1(c2ccc(Cl)c(C(F)(F)F)c2)CCN(CCCC(c2ccc(F)cc2)c2ccc(F)cc2)CC1 [Penfluridol]
Ki [2]: 63.1 nM

O=c1[nH]c2ccccc2n1C1CCN(CCCC(c2ccc(F)cc2)c2ccc(F)cc2)CC1 [1-(1-(4,4-bis(4-fluorophenyl)butyl)piperidin-4-yl)-1H-benzo[d]imidazol-2(3H)-one]
Ki [3]: > 10000 nM

CN1CCN(CC/C=C2/c3ccccc3Sc3ccc(S(=O)(=O)N(C)C)cc32)CC1 [MLS000028463]
Ki [1]: 0.63 nM | Ki [3]: 1580 nM

CCN1CCC[C@H]1CNC(=O)c1c(O)c(Cl)cc(Cl)c1OC [3,5-Dichloro-N-(1-ethyl-pyrrolidin-2-ylmethyl)-2-hydroxy-6-methoxy-benzamide (raclopride)]
Ki [2]: 5010 nM | Ki [3]: 5010 nM

CC(=O)c1ccc2c(c1)N(CCCN1CCN(CCO)CC1)c1ccccc1S2 [CAS_5714-00-1]
Ki [3]: 1000 nM

CN(C)CC/C=C1\c2ccccc2Sc2ccc(Cl)cc21
Ki [2]: 0.39 nM

OCCN1CCN(CCCN2c3ccccc3Sc3ccc(Cl)cc32)CC1 [4-[3-(2-chlorophenothiazin-10-yl)propyl]-1-piperazineethanol]
Ki [1]: 0.63 nM | Ki [2]: 2.51 nM | Ki [3]: 50.1 nM

CC1CN(CCCn2c3ccccc3c3ccccc32)CC(C)N1 (stereo unspecified) [9-[3-(3,5-dimethylpiperazin-1-yl)propyl]-9H-carbazole]
Ki [2]: 5010 nM

CN1CCN(C2=Cc3cc(Cl)ccc3C(=CC#N)c3ccccc32)CC1 [CAS_79781-95-6]
Ki [1]: 39.8 nM | Ki [2]: 0.63 nM | Ki [3]: 25.1 nM

O=C1CC2(CCCC2)CC(=O)N1CCCCN1CCN(c2nsc3ccccc23)CC1 [TIOSPERONE]
Ki [1]: 0.5 nM | Ki [3]: 10 nM

CCc1c(C)[nH]c2c1C(=O)C(CN1CCOCC1)CC2 (stereo unspecified) [Moban]
Ki [1]: 15.8 nM | Ki [2]: 501 nM

CN1CCN(C2=Nc3cscc3C(=CC#N)c3cscc32)CC1 [NSC_3086153]
Ki [1]: 1580 nM | Ki [3]: 63.1 nM

CN1CCN(CCCN2c3ccccc3Sc3ccc(Cl)cc32)CC1 [2-chloro-10-[3-(4-methylpiperazin-1-yl)propyl]phenothiazine;ethane-1,2-disulfonic acid]
Ki [2]: 6.3 nM | Ki [3]: 79.4 nM

CC1CCN(CCCC(=O)c2ccc(F)cc2)CC1 [CAS_3575-80-2]
Ki [1]: 200 nM | Ki [3]: 1260 nM
